Results reported in ChEMBL document CHEMBL3885881, “DrugMatrix”.

Species on record: Rattus norvegicus
Assay: DrugMatrix - Regimen: Daily Repeat
Assay type: toxicity, organism-based, Sprague-Dawley
Design: regimen Daily Repeat, gender Male, age 6-8 weeks
Settings: in vivo, ip, route intraperitoneal, vehicle 100 % SALINE; for ALANINE AMINOTRANSFERASE / ALBUMIN / ALKALINE PHOSPHATASE / ASPARTATE AMINOTRANSFERASE / BLOOD UREA NITROGEN / CARBON DIOXIDE / CHLORIDE / CHOLESTEROL / CREATINE PHOSPHOKINASE / CREATININE / GLUCOSE / LACTATE DEHYDROGENASE / LIPASE / PHOSPHORUS / POTASSIUM / SODIUM / TOTAL BILIRUBIN / TOTAL PROTEIN / URIC ACID: tissue Plasma; for ABSOLUTE BASOPHIL / ABSOLUTE EOSINOPHIL / ABSOLUTE LYMPHOCYTE / ABSOLUTE MONOCYTE / ABSOLUTE SEGMENTED NEUTROPHIL / BASOPHIL / EOSINOPHIL / ERYTHROCYTE COUNT / HEMATOCRIT / HEMOGLOBIN / LEUKOCYTE COUNT / LYMPHOCYTE / MEAN CORPUSCULAR HEMOGLOBIN / MEAN CORPUSCULAR HEMOGLOBIN CONCENTRATION / MEAN CORPUSCULAR VOLUME / MONOCYTE / NEUTROPHIL / NUCLEATED RED BLOOD CELLS / PLATELET COUNT: tissue Blood
[1] = 16 mg/kg, […], dose level Low, time 7 day
[2] = 25 mg/kg, 72 h, dose level M1, time 3 day
[3] = 25 mg/kg, […], dose level M1, time 7 day

Compound: C=CCO [ALLYL ALCOHOL]
- ALANINE AMINOTRANSFERASE [1]: 80.83 u/L
- ALBUMIN [1]: 4.13 G/DL
- ALKALINE PHOSPHATASE [1]: 183 u/L
- ASPARTATE AMINOTRANSFERASE [1]: 104.33 u/L
- BLOOD UREA NITROGEN [1]: 16.67 mg/dL
- CARBON DIOXIDE [1]: 32.17 mmol/L
- CHLORIDE [1]: 100.67 MEQ/L
- CHOLESTEROL [1]: 73.5 mg/dL
- CREATINE PHOSPHOKINASE [1]: 256 u/L
- CREATININE [1]: 0.27 mg/dL
- GLUCOSE [1]: 141 mg/dL
- LACTATE DEHYDROGENASE [1]: 96.17 u/L
- LIPASE [1]: 10.5 u/L
- PHOSPHORUS [1]: 10.28 mg/dL
- POTASSIUM [1]: 5.47 MEQ/L
- SODIUM [1]: 142.65 MEQ/L
- TOTAL BILIRUBIN [1]: 0.12 mg/dL
- TOTAL PROTEIN [1]: 6.32 G/DL
- URIC ACID [1]: 0.65 mg/dL
- ABSOLUTE BASOPHIL [2]: 0 CELLS/uL
- ABSOLUTE EOSINOPHIL [2]: 43.33 CELLS/uL
- ABSOLUTE LYMPHOCYTE [2]: 12346.17 CELLS/uL
- ABSOLUTE MONOCYTE [2]: 299.67 CELLS/uL
- ABSOLUTE SEGMENTED NEUTROPHIL [2]: 1244.17 CELLS/uL
- BASOPHIL [2]: 0%
- EOSINOPHIL [2]: 0.33%
- ERYTHROCYTE COUNT [2]: 5.36 x10E6/uL
- HEMATOCRIT [2]: 34.17%
- HEMOGLOBIN [2]: 13.52 G/DL
- LEUKOCYTE COUNT [2]: 13.93 x10E3/uL
- LYMPHOCYTE [2]: 88.17%
- MEAN CORPUSCULAR HEMOGLOBIN [2]: 25.25 pg
- MEAN CORPUSCULAR HEMOGLOBIN CONCENTRATION [2]: 39.62 G/DL
- MEAN CORPUSCULAR VOLUME [2]: 63.8 fL
- MONOCYTE [2]: 2.17%
- NEUTROPHIL [2]: 9.33%
- NUCLEATED RED BLOOD CELLS [2]: 0 /100WBC
- PLATELET COUNT [2]: 1124.67 x10E3/uL
- ALANINE AMINOTRANSFERASE [2]: 46.67 u/L
- ALBUMIN [2]: 4 G/DL
- ALKALINE PHOSPHATASE [2]: 230.83 u/L
- ASPARTATE AMINOTRANSFERASE [2]: 67.33 u/L
- BLOOD UREA NITROGEN [2]: 11.17 mg/dL
- CARBON DIOXIDE [2]: 32.67 mmol/L
- CHLORIDE [2]: 102 MEQ/L
- CHOLESTEROL [2]: 77.17 mg/dL
- CREATINE PHOSPHOKINASE [2]: 229.5 u/L
- CREATININE [2]: 0.39 mg/dL
- GLUCOSE [2]: 137 mg/dL
- LACTATE DEHYDROGENASE [2]: 101.67 u/L
- LIPASE [2]: 8.33 u/L
- PHOSPHORUS [2]: 9.72 mg/dL
- POTASSIUM [2]: 5.84 MEQ/L
- SODIUM [2]: 141.88 MEQ/L
- TOTAL BILIRUBIN [2]: 0.17 mg/dL
- TOTAL PROTEIN [2]: 6.07 G/DL
- URIC ACID [2]: 1.12 mg/dL
- ABSOLUTE BASOPHIL [3]: 0 CELLS/uL
- ABSOLUTE EOSINOPHIL [3]: 65.67 CELLS/uL
- ABSOLUTE LYMPHOCYTE [3]: 7275.5 CELLS/uL
- ABSOLUTE MONOCYTE [3]: 150.67 CELLS/uL
- ABSOLUTE SEGMENTED NEUTROPHIL [3]: 874.83 CELLS/uL
- BASOPHIL [3]: 0%
- EOSINOPHIL [3]: 0.67%
- ERYTHROCYTE COUNT [3]: 5.49 x10E6/uL
- HEMATOCRIT [3]: 34.07%
- HEMOGLOBIN [3]: 13.33 G/DL
- LEUKOCYTE COUNT [3]: 8.37 x10E3/uL
- LYMPHOCYTE [3]: 87.67%
- MEAN CORPUSCULAR HEMOGLOBIN [3]: 24.3 pg
- MEAN CORPUSCULAR HEMOGLOBIN CONCENTRATION [3]: 39.13 G/DL
- MEAN CORPUSCULAR VOLUME [3]: 62.12 fL
- MONOCYTE [3]: 1.83%
- NEUTROPHIL [3]: 9.83%
- NUCLEATED RED BLOOD CELLS [3]: 0 /100WBC
- PLATELET COUNT [3]: 1389.83 x10E3/uL
- ALANINE AMINOTRANSFERASE [3]: 80.83 u/L
- ALBUMIN [3]: 4.2 G/DL
- ALKALINE PHOSPHATASE [3]: 232.83 u/L
- ASPARTATE AMINOTRANSFERASE [3]: 88.17 u/L
- BLOOD UREA NITROGEN [3]: 15 mg/dL
- CARBON DIOXIDE [3]: 31.33 mmol/L
- CHLORIDE [3]: 101 MEQ/L
- CHOLESTEROL [3]: 66.5 mg/dL
- CREATINE PHOSPHOKINASE [3]: 274.5 u/L
